The source of these data is US20250367170A1, “TOPICAL ANGIOTENSIN II RECEPTOR BLOCKERS (ARBS) FOR TREATING EYE CONDITIONS” (The Cleveland Clinic Foundation, priority 2022, published 2025).

SMILES strings stand for the structures.

For series [1], the system named is rabbit corneas after Descemetorhexis. Kind of series: Slit lamp opacity, scarring fibrosis and neovascularization one month after Descemetorhexis or sham surgery. In kind it is in vivo, New Zealand White rabbits. Particulars: for intensity of opacity in a 2.5 mm circle of central cornea (ImageJ) vs vehicles or oral losartan alone: P<0.05. Here is the method: All procedures involving animals were approved by the Institutional Animal Care and Use Committee (IACUC) at the Cleveland Clinic Foundation (Cleveland, OH, USA) and the Animal Care and Use Review Office of the Department of the Army (Fort Detrick, MD). All animals were treated in accordance with the tenets of the ARVO Statement for the Use of Animals in Ophthalmic and Vision Research. Twenty-eight 10- to 15-week-old female New Zealand White rabbits weighing 2.5 to 3.0 kg each were included in this study—four in each group.
The rabbits had general anaesthesia with 30 mg/kg ketamine hydrochloride and 5 mg/kg xylazine by IM injection. In addition, topical proparacaine hydrochloride 1% (Alcon, Ft Worth, TX, USA) was applied to each eye prior to the surgery. One cornea selected at random in each group either had sham surgery without Descemetorhexis or an 8 mm diameter central Descemet's membrane-endothelial excision. The time point of one month after surgery was selected for the study because myofibroblasts and fibrosis in the posterior cornea was maximal at this time point in a prior time course Descemetorhexis study (Sampaio et al., 2021). Descemetorhexis was performed as described in the prior study (Sampaio et al., 2021). Briefly, a wire lid speculum was placed into one eye of each rabbit and an 8 mm diameter gentian violet circle was marked on the epithelial surface for reference. A limbal entry incision was created with a 1.6 mm blade (Bausch and Lomb, Rochester, NY, USA) and 0.3 ml Healon OVD (Abbott Medical Optics Inc. Santa Ana, CA, USA) was injected into the anterior chamber. A reversed Sinskey hook (Katena, Denville, New Jersey, USA) was placed into the anterior chamber and an 8 mm diameter disc of Descemet's membrane and endothelium was excised underlying the 8 mm area previously marked on the anterior corneal surface, without a subsequent endothelial corneal transplant. No removal of Descemet's membrane or endothelium was performed in unwounded sham surgery eyes. Remaining Healon OVD was removed with a Simcoe irrigation and aspiration cannula (Bausch & Lomb, Storz, Rochester, NY, USA) and the anterior chamber was filled with balanced salt solution (BSS). A single 10-0 nylon suture was placed at the incision site to prevent leakage from the anterior chamber. One drop of ciprofloxacin (Alcon, Ft. Worth, TX, USA) was applied to the corneas immediately after surgery and four times a day until the epithelium entry wound healed at approximately 2 days.
The oral solution was prepared with 5 ml distilled water+50 ml ora-plus (suspending vehicle—Perrigo, Dublin, Ireland)+45 ml Ora-sweet (flavored syrup vehicle—Perrigo).
After one month of treatment, study eyes were dilated with two drops of 1% tropicamide (Akom Co., Lake Forest, IL) for thirty minutes. After general anaesthesia, the study eye in each rabbit had standardized slit lamp photographs at 20× magnification with a Haag Streit (Mason, OH, USA) BX900 slit lamp photography system using identical lighting position and intensity. For each study eye, the intensity of a 2.5 mm diameter central circle (not including the light reflex, examples shown in FIG. 1) was determined using ImageJ 1.53a analysis software. Statistical comparisons of the intensity of opacity was performed using the Kruskal-Wallis test followed by post-hoc Dunn's-Bonferroni test and p<0.05 was considered statistically significant

Series [2] deals with α-SMA-positive myofibroblasts. In words: IHC for α-SMA-positive myofibroblasts, area and intensity (ImageJ) after alkali burn. Format: in vivo, New Zealand White rabbits. The settings on record: one month. The procedure:
One month after exposure and topical treatment, rabbits were euthanized after ketamine-xylazine general anesthesia with 100 mg/kg Beuthanasia (Shering-Plough, Kenilworth, NJ) by intravenous injection and bilateral pneumothorax. The corneo-scleral rims of eyes were removed with sharp Westcott scissors (Fairfield, CT, USA) and 0.12 forceps (Storz, St. Louis, MO). The cornea was centered in a 24×24×5 mm mold (Fisher Scientific, Pittsburgh, PA, USA) that was filled with OCT compound (Sakura Finetek, Torrance, CA, USA) and quick frozen on dry ice. Blocks were stored at −80° C. until sectioning. […]
The area of the α-SMA-positive stroma in mm^2 and the total α-SMA opacity in pixels were quantitated using standardized images obtained with a 10× objective on a Leica DM6B upright microscope equipped with an automated stage and Leica 7000 T camera using the LAS X software (Leica Microsystems, GmbH, Wetzlar, Germany). The means of three central corneal sections were analyzed from each cornea to provide the area of α-SMA-positive stroma and the total α-SMA opacity. […] In these same sections for each cornea, the total α-SMA-positive intensity in pixels was also determined with ImageJ, similarly by using the summation if separate α-SMA-positive areas were present.

[3] abbreviates: Descemetorhexis, topical losartan.

Take `CCCCc1nc(Cl)c(CO)n1Cc1ccc(-c2ccccc2-c2nn[nH]n2)cc1` [losartan]: the “scarring fibrosis and neovascularization compared to vehicle control corneas” value in series [1] (Descemetorhexis, oral 5 mg/kg three times a day) is on record as “no difference”. In series [1] (Descemetorhexis, topical 0.1 mg/ml six times per day), the “scarring fibrosis (slit lamp)” value was “overall decrease”. In addition, in series [1] (Descemetorhexis, topical 0.1 mg/ml six times per day and oral 5 mg/kg three times a day), the “changes in corneal opacity and neovascularization compared with topical losartan alone” value is listed as “not different”. The “intensity of opacity in a 2.5 mm circle of central cornea (ImageJ) vs vehicles or oral losartan alone” value in series [1] (Descemetorhexis, topical and oral losartan) is given as “significant decrease”; in series [1] (setting [3]) it was “significant decrease”. Moreover, the “corneal neovascularization that developed after Descemetorhexis” value in series [1] (setting [3]) is “reduced”. Moreover, the “effect on the transparency of sham unwounded corneas” value in series [1] (oral 5 mg/kg three times per day) and in series [1] (topical 0.1 mg/ml six times per day) was “no effect” in each case. In addition, in series [2], the “total α-SMA area vs vehicle control group” value was “trend towards the losartan group being significantly different”.
